According to patent publication US20230085307A1, “PYRIDAZINONE COMPOUND AND HERBICIDE” (NISSAN CHEMICAL CORPORATION, priority 2019, published 2023):

Experiments:
Italian ryegrass [1] = assay: Test Example 5: herbicidal effect by foliage application, plastic box (Table 20, symbol K); assay type: in vivo, Italian ryegrass (Lolium multiflorum); conditions: foliage application, AAH 320 g/ha, evaluated three weeks after application
In short: (§1)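 Post-emergence foliar test in sterilized diluvial soil. Compound applied as water-diluted emulsion at a predetermined rate to 14-day-old plants; evaluation at three weeks.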

green foxtail [2] = assay: Test Example 5: herbicidal effect by foliage application, plastic box (Table 20, symbol G); assay type: in vivo, green foxtail (Setaria viridis); conditions: foliage application, AAH 320 g/ha, evaluated three weeks after application
In short: as §1

Chinese sprangletop = assay: Test Example 3: herbicidal effect by foliage application, Wagner pot (Table 18, symbol D); assay type: in vivo, chinese sprangletop (Leptochloa chinensis); conditions: amount of applied herbicide 320 g/ha
In short: (§2)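 Plants were sown in alluvial soil held under 0.1–0.5 cm standing water and grown 14 days in a greenhouse at 25–30 °C. An emulsifiable formulation, water-diluted to the set dose, was then sprayed onto the foliage, and effects were scored three weeks later using previously defined criteria.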

green foxtail [3] = assay: Test Example 4: herbicidal effect by soil treatment (Table 19, symbol G); assay type: in vivo, green foxtail (Setaria viridis); conditions: amount of applied herbicide 320 g/ha
In short: (§3)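 Emulsion of test compound, water-diluted to predetermined amount, sprayed on soil after sowing (seed depth ~1.5 cm, sterilized diluvial soil). Greenhouse, 25–30° C. Effect graded at three weeks post-spray.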

blackgrass [4] = assay: Test Example 4: herbicidal effect by soil treatment (Table 19, symbol J); assay type: in vivo, blackgrass (Alopecurus myosuroides); conditions: amount of applied herbicide 320 g/ha
In short: as §3

wild oat [5] = assay: Test Example 4: herbicidal effect by soil treatment (Table 19, symbol I); assay type: in vivo, wild oat (Avena fatua); conditions: amount of applied herbicide 320 g/ha
In short: as §3

lambsquarters [6] = assay: Test Example 4: herbicidal effect by soil treatment (Table 19, symbol O); assay type: in vivo, lambsquarters (Chenopodium album); conditions: amount of applied herbicide 320 g/ha
In short: as §3

redroot pigweed [7] = assay: Test Example 5: herbicidal effect by foliage application, plastic box (Table 20, symbol N); assay type: in vivo, redroot pigweed (Amaranthus retroflexus); conditions: foliage application, AAH 320 g/ha, evaluated three weeks after application
In short: as §1

wild oat [8] = assay: Test Example 5: herbicidal effect by foliage application, plastic box (Table 20, symbol I); assay type: in vivo, wild oat (Avena fatua); conditions: foliage application, AAH 320 g/ha, evaluated three weeks after application
In short: as §1

velvetleaf [9] = assay: Test Example 4: herbicidal effect by soil treatment (Table 19, symbol M); assay type: in vivo, velvetleaf (Abutilon theophrasti); conditions: amount of applied herbicide 320 g/ha
In short: as §3

windgrass [10] = assay: Test Example 5: herbicidal effect by foliage application, plastic box (Table 20, symbol L); assay type: in vivo, windgrass (Apera spica-venti); conditions: foliage application, AAH 320 g/ha, evaluated three weeks after application
In short: as §1

southern crabgrass [11] = assay: Test Example 5: herbicidal effect by foliage application, plastic box (Table 20, symbol F); assay type: in vivo, southern crabgrass (Digitaria ciliaris); conditions: foliage application, AAH 320 g/ha, evaluated three weeks after application
In short: as §1

southern crabgrass [12] = assay: Test Example 4: herbicidal effect by soil treatment (Table 19, symbol F); assay type: in vivo, southern crabgrass (Digitaria ciliaris); conditions: amount of applied herbicide 320 g/ha
In short: as §3

false cleavers = assay: Test Example 5: herbicidal effect by foliage application, plastic box (Table 20, symbol Q); assay type: in vivo, false cleavers (Galium spurium); conditions: foliage application, AAH 320 g/ha, evaluated three weeks after application
In short: as §1

blackgrass [13] = assay: Test Example 5: herbicidal effect by foliage application, plastic box (Table 20, symbol J); assay type: in vivo, blackgrass (Alopecurus myosuroides); conditions: foliage application, AAH 320 g/ha, evaluated three weeks after application
In short: as §1

windgrass [14] = assay: Test Example 4: herbicidal effect by soil treatment (Table 19, symbol L); assay type: in vivo, windgrass (Apera spica-venti); conditions: amount of applied herbicide 320 g/ha
In short: as §3

chickweed [15] = assay: Test Example 4: herbicidal effect by soil treatment (Table 19, symbol P); assay type: in vivo, common chickweed (Stellaria media); conditions: amount of applied herbicide 320 g/ha
In short: as §3

redroot pigweed [16] = assay: Test Example 4: herbicidal effect by soil treatment (Table 19, symbol N); assay type: in vivo, redroot pigweed (Amaranthus retroflexus); conditions: amount of applied herbicide 320 g/ha
In short: as §3

chickweed [17] = assay: Test Example 5: herbicidal effect by foliage application, plastic box (Table 20, symbol P); assay type: in vivo, common chickweed (Stellaria media); conditions: foliage application, AAH 320 g/ha, evaluated three weeks after application
In short: as §1

barnyard grass [18] = assay: Test Example 4: herbicidal effect by soil treatment (Table 19, symbol H); assay type: in vivo, barnyard grass (Echinochloa crus-galli); conditions: amount of applied herbicide 320 g/ha
In short: as §3

rice flat sedge = assay: Test Example 3: herbicidal effect by foliage application, Wagner pot (Table 18, symbol E); assay type: in vivo, rice flat sedge (Cyperus iria); conditions: amount of applied herbicide 320 g/ha
In short: as §2

barnyard grass [19] = assay: Test Example 5: herbicidal effect by foliage application, plastic box (Table 20, symbol H); assay type: in vivo, barnyard grass (Echinochloa crus-galli); conditions: foliage application, AAH 320 g/ha, evaluated three weeks after application
In short: as §1

velvetleaf [20] = assay: Test Example 5: herbicidal effect by foliage application, plastic box (Table 20, symbol M); assay type: in vivo, velvetleaf (Abutilon theophrasti); conditions: foliage application, AAH 320 g/ha, evaluated three weeks after application
In short: as §1

lambsquarters [21] = assay: Test Example 5: herbicidal effect by foliage application, plastic box (Table 20, symbol O); assay type: in vivo, lambsquarters (Chenopodium album); conditions: foliage application, AAH 320 g/ha, evaluated three weeks after application
In short: as §1

barnyard grass [22] = assay: Test Example 3: herbicidal effect by foliage application, Wagner pot (Table 18, symbol H); assay type: in vivo, barnyard grass (Echinochloa crus-galli); conditions: amount of applied herbicide 320 g/ha
In short: as §2

Italian ryegrass [23] = assay: Test Example 4: herbicidal effect by soil treatment (Table 19, symbol K); assay type: in vivo, Italian ryegrass (Lolium multiflorum); conditions: amount of applied herbicide 320 g/ha
In short: as §3

persian speedwell [24] = assay: Test Example 5: herbicidal effect by foliage application, plastic box (Table 20, symbol R); assay type: in vivo, Persian speedwell (Veronica persica); conditions: foliage application, AAH 320 g/ha, evaluated three weeks after application
In short: as §1

persian speedwell [25] = assay: Test Example 4: herbicidal effect by soil treatment (Table 19, symbol R); assay type: in vivo, Persian speedwell (Veronica persica); conditions: amount of applied herbicide 320 g/ha
In short: as §3

How did the “K: Italian ryegrass, herbicidal effect (criteria 0-5)” value (Italian ryegrass [1]) turn out when `Cc1nn(C)c(=O)c(-c2c(-c3ccc(OC(F)F)cc3)sc3ccc(F)cc23)c1OS(=O)(=O)C(C)C` [2-309] was run?
Its value is 4 (Herbicidal rate of 70% or more and less than 90%).

What about the “G: green foxtail, herbicidal effect (criteria 0-5)” value (green foxtail [2]) of the same molecule?
Its value is 5 (Herbicidal rate of 90% or more (almost completely withered)).

What about the “herbicidal effect on D: Chinese sprangletop” value (Chinese sprangletop) of the same molecule?
Its value is 3 (Herbicidal rate of 40% or more and less than 70%).

What about the “herbicidal effect on G: green foxtail” value (green foxtail [3]) of the same molecule?
The value was 0 (Herbicidal rate of 5% or less (almost no effect)).

What about the “herbicidal effect on J: blackgrass” value (blackgrass [4]) of the same molecule?
Its value is 0 (Herbicidal rate of 5% or less (almost no effect)).

And the “herbicidal effect on I: wild oat” value (wild oat [5])?
The value was 0 (Herbicidal rate of 5% or less (almost no effect)).

What about the “herbicidal effect on O: lambsquarters” value (lambsquarters [6]) of the same molecule?
The value was 4 (Herbicidal rate of 70% or more and less than 90%).

What about the “N: redroot pigweed, herbicidal effect (criteria 0-5)” value (redroot pigweed [7]) of the same molecule?
Its value is 5 (Herbicidal rate of 90% or more (almost completely withered)).

What about the “I: wild oat, herbicidal effect (criteria 0-5)” value (wild oat [8]) of the same molecule?
Its value is 1 (Herbicidal rate of 5% or more and less than 20%).

And the “herbicidal effect on M: velvetleaf” value (velvetleaf [9])?
Its value is 1 (Herbicidal rate of 5% or more and less than 20%).

And the “L: windgrass, herbicidal effect (criteria 0-5)” value (windgrass [10])?
Its value is 1 (Herbicidal rate of 5% or more and less than 20%).

And the “F: southern crabgrass, herbicidal effect (criteria 0-5)” value (southern crabgrass [11])?
The value was 0 (Herbicidal rate of 5% or less (almost no effect)).

What about the “herbicidal effect on F: southern crabgrass” value (southern crabgrass [12]) of the same molecule?
Its value is 0 (Herbicidal rate of 5% or less (almost no effect)).

What about the “Q: false cleavers, herbicidal effect (criteria 0-5)” value (false cleavers) of the same molecule?
The value was 4 (Herbicidal rate of 70% or more and less than 90%).

And the “J: blackgrass, herbicidal effect (criteria 0-5)” value (blackgrass [13])?
Its value is 3 (Herbicidal rate of 40% or more and less than 70%).

And the “herbicidal effect on L: windgrass” value (windgrass [14])?
The value was 0 (Herbicidal rate of 5% or less (almost no effect)).

What about the “herbicidal effect on P: chickweed” value (chickweed [15]) of the same molecule?
Its value is 3 (Herbicidal rate of 40% or more and less than 70%).

What about the “herbicidal effect on N: redroot pigweed” value (redroot pigweed [16]) of the same molecule?
The value was 5 (Herbicidal rate of 90% or more (almost completely withered)).

And the “P: chickweed, herbicidal effect (criteria 0-5)” value (chickweed [17])?
Its value is 5 (Herbicidal rate of 90% or more (almost completely withered)).

And the “herbicidal effect on H: barnyard grass” value (barnyard grass [18])?
Its value is 0 (Herbicidal rate of 5% or less (almost no effect)).

What about the “herbicidal effect on E: rice flat sedge” value (rice flat sedge) of the same molecule?
Its value is 5 (Herbicidal rate of 90% or more (almost completely withered)).

What about the “H: barnyard grass, herbicidal effect (criteria 0-5)” value (barnyard grass [19]) of the same molecule?
The value was 5 (Herbicidal rate of 90% or more (almost completely withered)).

What about the “M: velvetleaf, herbicidal effect (criteria 0-5)” value (velvetleaf [20]) of the same molecule?
The value was 5 (Herbicidal rate of 90% or more (almost completely withered)).

And the “O: lambsquarters, herbicidal effect (criteria 0-5)” value (lambsquarters [21])?
The value was 5 (Herbicidal rate of 90% or more (almost completely withered)).

What about the “herbicidal effect on H: barnyard grass” value (barnyard grass [22]) of the same molecule?
Its value is 5 (Herbicidal rate of 90% or more (almost completely withered)).

What about the “herbicidal effect on K: Italian ryegrass” value (Italian ryegrass [23]) of the same molecule?
Its value is 0 (Herbicidal rate of 5% or less (almost no effect)).

And the “R: persian speedwell, herbicidal effect (criteria 0-5)” value (persian speedwell [24])?
Its value is 5 (Herbicidal rate of 90% or more (almost completely withered)).

And the “herbicidal effect on R: persian speedwell” value (persian speedwell [25])?
The value was 5 (Herbicidal rate of 90% or more (almost completely withered)).
